Assays:
[1] = system: pCHK1 (S345) in Colo320 DM cells; assay: Alphalisa assay, detection of pCHK1 (S345) in Colo320 DM cells; format: cell-based, human; details: Homo sapiens, COLO 320DM, compound overnight (approximately 16 hours)
Outline: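 Phospho-CHK1 (S345) read by AlphaLisa SureFire in lysates of human colorectal Colo320 DM cells. Compound treatment ran overnight (~16 h, 37 °C, DMSO <0.5%) on cells seeded the day before.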

human hepatocytes = assay: Human hepatocyte stability assay; format: in vitro ADME; details: 0.5×10^6 viable cells/ml, time points 0.5 and 60 minutes
Protocol: 1. 10 mM stock solutions of test compounds and positive control were prepared in DMSO. Thawing medium and supplement incubation medium (serum-free) were placed in a 37° C. water bath for at least 15 minutes prior to use.
2. Stock solutions were diluted to 100 μM by combining 198 μL acetonitrile and 2 μL of 10 mM stock solution. Verapamil was use as positive control in the assay.
3. Vials of cryopreserved human hepatocytes were removed from storage, while ensuring that vials remain at cryogenic temperatures. The pressure was removed by loosening and re-tightening the cap. The vials were thawed in a 37° C. water bath with gentle shaking. Vials remained in the water bath until all ice crystals had dissolved and were no longer visible. Vials were sprayed with 70% ethanol before being transferred to a biosafety cabinet. Then the contents were poured into a 50 mL thawing medium conical tube. Vials were centrifuged at 100 g for 10 minutes at room temperature. Thawing medium was aspirated and hepatocytes were re-suspended with serum-free incubation medium to yield ˜1.5×10^6 cells/mL.
4. Cell viability and density were counted using Cellometer® Vision, and then cells were diluted with serum-free incubation medium to a working cell density of 0.5×10^6 viable cells/ml.
5. Aliquots of 198 μL hepatocytes were dispensed into each well of a 96-well non-coated plate. The plate was placed in the incubator on an orbital shaker at 500 rpm for approximately 10 minutes.
6. Aliquots of 2 μL of the 100 μM test compounds or verapamil were added into respective wells of the non-coated 96-well plate to start the reaction. This assay was performed in duplicate. The plate was incubated in the incubator on an orbital shaker at 500 rpm for the designed time points.
7.25 μL of contents were transferred and mixed with 5 volumes (125 μL) of cold acetonitrile with IS (100 nM alprazolam, 200 nM caffeine, 100 nM labetalol and 100 nM tolbutamide) to terminate the reaction at time points of 0.5 and 60 minutes. Samples were centrifuged for 30 minutes at 3,220 g. Then transfer 100 μL of the supernatant to new 96-well plates for analysis. Add 100 μL of distilled water to each sample and mix for analysis by LC-MS/MS.
All calculations were carried out using Microsoft Excel. Peak areas were determined from extracted ion chromatograms. The in vitro half-life (tin) of the parent compound was determined by regression analysis of the percent parent disappearance vs. time curve. • a. The in vitro half-life (in vitro tin) was determined from the slope value: in vitro t1/2=0.693/k • b. Conversion of the in vitro tin (in min) into the in vitro intrinsic clearance (in vitro CLint, in μL/min/10^6 cells) was done using the following equation: […]

RNR (RNR1:RNR2 1:1) = target: T1, RNR (RNR1:RNR2 1:1) (Homo sapiens, UniProt P23921); assay: RNR enzyme activity, rapid-fire mass spectrometry (RF/MS) assay; format: biochemical; details: [RNR] 50 nM, 1:1 RNR1:RNR2; CDP 5 μM; ATP 1 mM; 37° C., 45 min; compounds screened up to 50 μM
T1 sequence (P23921 1-792): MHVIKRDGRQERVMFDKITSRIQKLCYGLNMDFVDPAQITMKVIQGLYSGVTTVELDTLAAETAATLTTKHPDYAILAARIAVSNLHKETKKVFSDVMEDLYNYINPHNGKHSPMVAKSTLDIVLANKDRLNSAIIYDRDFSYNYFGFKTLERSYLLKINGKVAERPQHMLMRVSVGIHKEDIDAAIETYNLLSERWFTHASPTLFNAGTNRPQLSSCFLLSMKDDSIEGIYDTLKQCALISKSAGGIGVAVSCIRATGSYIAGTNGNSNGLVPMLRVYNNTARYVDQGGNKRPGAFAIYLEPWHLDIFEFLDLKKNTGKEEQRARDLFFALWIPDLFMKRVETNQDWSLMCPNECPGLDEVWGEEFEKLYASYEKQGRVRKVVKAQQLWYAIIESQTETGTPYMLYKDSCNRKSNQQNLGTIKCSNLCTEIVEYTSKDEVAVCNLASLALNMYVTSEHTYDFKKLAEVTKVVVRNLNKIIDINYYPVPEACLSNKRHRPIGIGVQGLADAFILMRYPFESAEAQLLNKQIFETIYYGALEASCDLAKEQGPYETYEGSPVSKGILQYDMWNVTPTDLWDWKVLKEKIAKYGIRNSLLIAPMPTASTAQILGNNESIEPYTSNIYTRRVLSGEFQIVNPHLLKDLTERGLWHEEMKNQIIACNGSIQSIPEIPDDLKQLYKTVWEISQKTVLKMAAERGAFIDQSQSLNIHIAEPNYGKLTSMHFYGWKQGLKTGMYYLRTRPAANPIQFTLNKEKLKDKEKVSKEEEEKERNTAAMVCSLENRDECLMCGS
Outline: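 Human RNR (50 nM final, RNR1:RNR2 1:1) pre-incubated 15 min at room temperature, then reacted 45 min at 37 °C with 5 μM CDP and 1 mM ATP, no NADPH. Reaction quenched with 6% HCOOH; product quantified by rapid-fire mass spectrometry.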

| Structure (SMILES) | IC50 [1] | IC50 (RNR (RNR1:RNR2 1:1)) | Clhep (human hepatocytes) |
| --- | --- | --- | --- |
| Cc1ccc(F)c([C@@H](C)[C@@H](c2n[nH]c(=O)o2)N2CCOc3cc(Cl)ccc3S2(=O)=O)c1C [Example 2, 5-((1S,2R)-1-(7-chloro-1,1-dioxido-3,4-dihydro-2H-benzo[b][1,4,5]oxathiazepin-2-yl)-2-(6-fluoro-2,3-dimethylphenyl)propyl)-1,3,4-oxadiazol-2(3H)-one] | 1000 to 5000 nM | < 20 nM | A (0 ml/min/kg ≤ Clhep ≤ 10 ml/min/kg) |
| Cc1ccc(F)c([C@@H](C)[C@@H](c2n[nH]c(=O)o2)N2CN(CCN3CCCC3)c3nc(Cl)ccc3S2(=O)=O)c1C [Example 92, 5-((1S,2R)-1-(6-chloro-1,1-dioxido-4-(2-(pyrrolidin-1-yl)ethyl)-3,4-dihydro-2H-pyrido[2,3-e][1,2,4]thiadiazin-2-yl)-2-(6-fluoro-2,3-dimethylphenyl)propyl)-1,3,4-oxadiazol-2 (3H)-one] | 1000 to 5000 nM | – | A (0 ml/min/kg ≤ Clhep ≤ 10 ml/min/kg) |
| Cc1ccc(F)c([C@@H](C)[C@@H](c2n[nH]c(=O)o2)N2CN(CCN3CCOCC3)c3nc(Cl)ccc3S2(=O)=O)c1C [Example 93, 5-((1S,2R)-1-(6-chloro-4-(2-morpholinoethyl)-1,1-dioxido-3,4-dihydro-2H-pyrido[2,3-e][1,2,4]thiadiazin-2-yl)-2-(6-fluoro-2,3-dimethylphenyl)propyl)-1,3,4-oxadiazol-2 (3H)-one] | ≤ 1000 nM | – | A (0 ml/min/kg ≤ Clhep ≤ 10 ml/min/kg) |
| CON1CN([C@H](c2n[nH]c(=O)o2)[C@H](C)c2c(F)ccc(C)c2C)S(=O)(=O)c2ccc(Cl)cc21 [Example 116, 5-((1S,2R)-1-(6-chloro-4-methoxy-1,1-dioxido-3,4-dihydro-2H-benzo[e][1,2,4]thiadiazin-2-yl)-2-(6-fluoro-2,3-dimethylphenyl)propyl)-1,3,4-oxadiazol-2 (3H)-one] | ≤ 1000 nM | – | B (10 ml/min/kg < Clhep ≤ 20 ml/min/kg) |
| Cc1ccc(F)c([C@@H](C)[C@@H](c2n[nH]c(=O)o2)N2CN([C@H](C)CO)c3cc(Cl)ccc3S2(=O)=O)c1C [Example 117, 5-((1S,2R)-1-(6-chloro-4-((R)-1-hydroxypropan-2-yl)-1,1-dioxido-3,4-dihydro-2H-benzo[e][1,2,4]thiadiazin-2-yl)-2-(6-fluoro-2,3-dimethylphenyl)propyl)-1,3,4-oxadiazol-2 (3H)-one] | 1000 to 5000 nM | – | B (10 ml/min/kg < Clhep ≤ 20 ml/min/kg) |
| Cc1ccc(F)c([C@@H](C)[C@@H](c2n[nH]c(=O)o2)N2CN(C3CC(=O)C3)c3cc(Cl)ccc3S2(=O)=O)c1C [Example 118, 5-((1S,2R)-1-(6-chloro-1,1-dioxido-4-(3-oxocyclobutyl)-3,4-dihydro-2H-benzo[e][1,2,4]thiadiazin-2-yl)-2-(6-fluoro-2,3-dimethylphenyl)propyl)-1,3,4-oxadiazol-2 (3H)-one] | ≤ 1000 nM | – | B (10 ml/min/kg < Clhep ≤ 20 ml/min/kg) |
| Cc1ccc(F)c([C@@H](C)[C@@H](c2n[nH]c(=O)o2)N2CN(O)c3cc(Cl)ccc3S2(=O)=O)c1C [Example 120, 5-((1S,2R)-1-(6-chloro-4-hydroxy-1,1-dioxido-3,4-dihydro-2H-benzo[e][1,2,4]thiadiazin-2-yl)-2-(6-fluoro-2,3-dimethylphenyl)propyl)-1,3,4-oxadiazol-2 (3H)-one] | 1000 to 5000 nM | – | B (10 ml/min/kg < Clhep ≤ 20 ml/min/kg) |
| Cc1ccc(F)c([C@@H](C)[C@@H](c2n[nH]c(=O)o2)N2CN([C@@H](C)CO)c3cc(Cl)ccc3S2(=O)=O)c1C [Example 121, 5-((1S,2R)-1-(6-chloro-4-((S)-1-hydroxypropan-2-yl)-1,1-dioxido-3,4-dihydro-2H-benzo[e][1,2,4]thiadiazin-2-yl)-2-(6-fluoro-2,3-dimethylphenyl)propyl)-1,3,4-oxadiazol-2 (3H)-one] | ≤ 1000 nM | – | B (10 ml/min/kg < Clhep ≤ 20 ml/min/kg) |

The next lines start with results.

| IC50 [1] | IC50 (RNR (RNR1:RNR2 1:1)) | Structure (SMILES) | Clhep (human hepatocytes) |
| --- | --- | --- | --- |
| ≤ 1000 nM | – | Cc1ccc(F)c([C@@H](C)[C@@H](c2n[nH]c(=O)o2)N2CN(C3CCOC(C)(C)C3)c3cc(Cl)ccc3S2(=O)=O)c1C (single isomer, unassigned) [Example 89] | B (10 ml/min/kg < Clhep ≤ 20 ml/min/kg) |
| ≤ 1000 nM | – | Cc1ccc(F)c([C@@H](C)[C@@H](c2n[nH]c(=O)o2)N2CN([C@H]3CCOC(C)(C)C3)c3cc(Cl)ccc3S2(=O)=O)c1C (single isomer, unassigned) [Example 90] | B (10 ml/min/kg < Clhep ≤ 20 ml/min/kg) |
| ≤ 1000 nM | < 20 nM | Cc1ccc(F)c([C@@H](C)[C@@H](c2n[nH]c(=O)o2)N2CN(C)c3cc(Cl)ccc3S2(=O)=O)c1C [Example 1, 5-((1S,2R)-1-(6-chloro-4-methyl-1,1-dioxido-3,4-dihydro-2H-benzo[e][1,2,4]thiadiazin-2-yl)-2-(6-fluoro-2,3-dimethylphenyl)propyl)-1,3,4-oxadiazol-2(3H)-one] | A (0 ml/min/kg ≤ Clhep ≤ 10 ml/min/kg) |
| ≤ 1000 nM | < 20 nM | Cc1ccc(F)c([C@@H](C)[C@@H](c2n[nH]c(=O)o2)N2CN(C)c3nc(Cl)ccc3S2(=O)=O)c1C [Example 3, 5-((1S,2R)-1-(6-chloro-4-methyl-1,1-dioxido-3,4-dihydro-2H-pyrido[2,3-e][1,2,4]thiadiazin-2-yl)-2-(6-fluoro-2,3-dimethylphenyl)propyl)-1,3,4-oxadiazol-2 (3H)-one] | B (10 ml/min/kg < Clhep ≤ 20 ml/min/kg) |
| ≤ 1000 nM | 20 to 100 nM | Cc1ccc(F)c([C@@H](C)[C@@H](c2n[nH]c(=O)o2)N2CNc3cc(Cl)ccc3S2(=O)=O)c1C [Example 8, 5-((1S,2R)-1-(6-chloro-1,1-dioxido-3,4-dihydro-2H-benzo[e][1,2,4]thiadiazin-2-yl)-2-(6-fluoro-2,3-dimethylphenyl)propyl)-1,3,4-oxadiazol-2 (3H)-one] | B (10 ml/min/kg < Clhep ≤ 20 ml/min/kg) |
| ≤ 1000 nM | < 20 nM | COCCCN1CN([C@H](c2n[nH]c(=O)o2)[C@H](C)c2c(F)ccc(C)c2C)S(=O)(=O)c2ccc(Cl)nc21 [Example 48, 5-((1S,2R)-1-(6-chloro-4-(3-methoxypropyl)-1,1-dioxido-3,4-dihydro-2H-pyrido[2,3-e][1,2,4]thiadiazin-2-yl)-2-(6-fluoro-2,3-dimethylphenyl)propyl)-1,3,4-oxadiazol-2 (3H)-one] | A (0 ml/min/kg ≤ Clhep ≤ 10 ml/min/kg) |

Reference: US20260085067A1, “CYCLIC SULFONAMIDE RIBONUCLEOTIDE REDUCTASE (RNR) INHIBITORS AND USES THEREOF” (Boundless Bio, Inc., priority 2022, published 2026)
